Laboratory results from publication PMC10861593, “Kisspeptin-10 binding to Gpr54 in osteoclasts prevents bone loss by activating Dusp18-mediated dephosphorylation of Src” (Nature Communications, 2024).
Entries after “also recorded” stand apart in the source; their conditions may differ. Where no end group is shown, it is not given here. [ ]: non-standard residue; d: D form. azaGly = NNC(=O)O

Legend:
FSH and LH = assay: Elisa of serum FSH and LH; format: in vivo, mouse; details: 10 nmol/kg twice per week for two months, versus vehicle; n = 6 per group
Source text: Supplementary Fig. 16 a Representative image of Von Kossa staining of sham-operated female C57 mice treated with vehicle (Sham, n=4), ovariectomized mice (OVX, n=3), and OVX mice treatment with 1 nmol/kg Kp-10 (n=6),10 nmol/kg Kp-10 (n=6),1 nmol/kg (DSS)*6-Kp-10 (n=5) or 10 nmol/kg (DSS)*6-Kp-10 (n=6) twice one week by intraperitoneal injection for two months. […] BV/TV, bone volume as a fraction of total bone volume; Tb. Th, trabecular thickness; Tb. Sp, trabecular separation; Tb. N, trabecular number. c Elisa assay showing LH, FSH derived from the serum of sham-operated female C57 mice treated with vehicle (Sham+ vehicle) or 10 nmol/kg (DSS)*6-Kp-10 (Sham+10 nmol/kg Kp-10), ovariectomized mice treated with vehicle (OVX+ vehicle) or 10 nmol/kg (DSS)*6-Kp-10 (OVX+ 10 nmol/kg Kp-10) twice one week by intraperitoneal injection for two months. n=6 per group. Error bars are ± SEM. P-values were determined by two-way ANOVA analysis (b, c) ***P <0.001, ****P <0.0001. “ns” means no significant difference. Representative results were observed from at least three independent experiments. Source data are provided as a Source Data file.

Dusp18 knockout mice = assay: bone and osteoclast parameters in Dusp18 knockout mice; format: in vivo, mouse; details: femur
Source text: Data represent means ± SEM. […] Representative results were obtained from at least three independent experiments. Source data are provided as a Source Data file.

OVX mice = assay: OVX-induced bone loss model (and sham-operated mice); format: in vivo, mouse
Source text: Fig. 7 Kp-10 ameliorated OVX-induced bone loss. a, c Representative micro-CT images of femoral trabecular bone (a) and cortical bone (c). Female C57 mice treated with vehicle (Sham) or 50 nmol/kg (DSS)*6-Kp-10, ovariectomized mice (OVX) treated with vehicle or 50nmol/kg (DSS)*6-Kp-10 twice one week by intraperitoneal injection (n = 6 per group). Scale bar, 500 µm. b, d Parameter analysis of femurs from the mice above. BMD bone mineral density, BV/TV bone volume as a fraction of total bone volume, Tb.Th trabecular thickness, Tb.N trabecular number, Tb.Sp trabecular separation. e Representative TRAP staining images of femurs from Fig. 7a. f Histomorphometry analysis of the femurs from Fig. 7a. Oc.S/BS osteoclast surface per bone surface, N.Oc/B.Pm osteoclast bone surface density, ES/BS eroded surface per bone surface. Data represent means ± SEM. P values were determined by one-way ANOVA analysis (b, d, f). Representative results were obtained from at least three independent experiments. Source data are provided as a Source Data file.
3D micro-CT analyses were performed as previously described. We scanned the femur using in vitro X-ray microtomography (Skyscan 1272, Bruker micro CT) at a pixel size of 9 µm, and analyzed the results according to the manufacturer’s instructions. Region-of-interest (ROI) was defined from 10 to 110 image slices, where the growth plate slice was defined as 0 mm. The contrast was defined from 68–255; 3D analysis, BMD, and 3D models were analyzed using CTAn software (Bruker micro CT). 3D models were adjusted in CT Vox software (Bruker micro CT).
Bone tissue was removed of excess tissues and fixed with 4% formalin, decalcified with 0.5 M EDTA for 10–14 days, embedded with paraffin, sectioned, and stained using the TRAP staining kit (Sigma-Aldrich, 387A-1KT). The third lumbar spine vertebrae (L3) were fixed with 4% formalin, sectioned, and subjected to Von Kossa staining as described previously[60],[61]. For double calcian labeling assay, 4−5 week-old mice were administrated calcian (30 μg/mL) through intraperitoneal injection for the first time and the second time after 10 days. The third lumbar spine vertebrae (L3) were fixed with 4% formalin, sectioned, and subjected to Goldner’s Masson trichrome staining, or acquisition of fluorescence images. Histomorphometric measurements were made using the OsteoMeasure Analysis System (Osteometrics, Atlanta, GA, USA) according to standard criteria.
For animal studies in vivo, mice were randomized for weight. For the OVX-induced bone loss model, 2-month-old female C57BL/6 mice were sham-operated (sham) or ovariectomized (OVX) and randomly divided into indicated groups. Vehicle, Kp-10 or (DSS)*6-Kp-10 was injected into the tail vein twice per week. After two months of treatment, the femurs and the L3 lumbrae were isolated for micro-CT or histomorphometric analysis. 3D micro-CT analyses were performed according to a standard protocol. BMD and bone volume were analyzed by CT-analysis software (CTAn, Bruker micro CT, Kontich, Belgium) and images were reconstituted by CT-volume software (CTvol, skyscan, CTAn, Bruker micro CT, Kontich, Belgium).
Supplementary Fig. 16 a Representative image of Von Kossa staining of sham-operated female C57 mice treated with vehicle (Sham, n=4), ovariectomized mice (OVX, n=3), and OVX mice treatment with 1 nmol/kg Kp-10 (n=6),10 nmol/kg Kp-10 (n=6),1 nmol/kg (DSS)*6-Kp-10 (n=5) or 10 nmol/kg (DSS)*6-Kp-10 (n=6) twice one week by intraperitoneal injection for two months. […]

[1] = cited from earlier work
Source text: (§1) Bone targeting Kp-10 ([…] D-Tyr–Asn-(D-Trp)-Asn-Ser-Phe-(azaGly)-Leu-Arg (Me)-Phe-NH2) was designed using six repetitive sequences of aspartate, serine, and serine, which is a bone surface-targeting delivery system as previously described.

GPR54 = tested on: GPR54; parameters: method as in PMID 22975302; details: cited from earlier work
Source text: as §1

GPR54 CT [2] = assay: competitive pull-down assay, His-SRC and His-DUSP18 with GST-GPR54 CT; format: binding, human; details: His-SRC 0 or 0.1 μg, His-DUSP18 0, 0.1 or 0.2 μg
Description: Beads were analyzed by phosphatase activity assay (a), mass spectrometry assay (b), IB analysis (c) and quantification of protein levels (d). e, f Protein co-localization was analyzed by IF staining in primary pre-osteoclast with 10 nM Kp-10 treatment for 20 min. […] Scale bar, 50 µm. g, h binding affinity was measured by SPR binding analysis. […] Data represent means ± SEM. P values were determined by one-way ANOVA analysis (a, d, j, l) or two-tailed Student’s t-test (f). Representative results were obtained from at least three independent experiments. Source data are provided as a Source Data file.

Src (Y416) = assay: in vitro phosphatase activity assay with Src; format: biochemical, human; details: purified proteins; 30 min at 30 °C; Western blot
Description: The C terminus of human GPR54 (H329- L398) and mouse Gpr54 (R331- L396) cDNAs were subcloned into a pGEX-4T2 vector. For purification of full-length WT human DUSP18 and DUSP18 (C104S) proteins, DUSP18 was cloned into pMCSG7 vector. For purification of Src (G85-L536) protein, cDNAs of human Src were subcloned into pFastBac HT B vector with an N-terminal 6xHis tag and expressed in Sf9 cells (Expression Systems) using the Bac-to-Bac Baculovirus Expression System (Invitrogen) for 48 h. For purification of the Src (G85-V247)-GPR54 (333–356 with C338S, C340S mutation) recombinant fusion protein, the C-terminus of GPR54 (333–356 with C338S and C340S mutation) was linked to the C terminus of Src SH3-SH2 domain (G85-V247), which was subcloned into the pMCSG7 vector.
For the total phosphatase activity assay, the Co-IP experiment was carried out after Kp-10 treatment of RAW264.7 cells for 20 min, followed by lysis and incubation with the Gpr54 antibody. The assay was performed according to the phosphatase assay kit (Sigma-Aldrich,17-313). For the DUSP18 phosphatase activity assay, His-DUSP18 and His-DUSP18 (C104S) were purified from E Coli, and His-Src was purified from Sf9 insect cells. His-DUSP18 and His-DUSP18 (C104S) were incubated with His-Src in 1x phosphatase buffer (20 mM HEPES, 20 mM MgCl2, 0.03% β-mercaptoethanol)[51] for 30 min at 30 °C with gentle shaking. […]

GPR54 CT [3] = assay: GST pull-down / Co-IP of GPR54 CT with DUSP18, PTPN6 and PPP1CA; format: binding, human; details: 293T WCL, DUSP18-Flag, PPP1CA-Flag or PTPN6-Flag
Description: Supplementary Fig. 3 a, b SPR binding analysis showing the binding affinity of Src and human GPR54^336-356 peptide (a), Src and human GPR54 ^333-344 peptide (b). c, d Anti-Flag IP derived from 293T cells transfected with HA-Src and GPR54-Flag constructs with Kp-10 (10 nM) stimulation (c) and quantification of protein levels (d). e. e IF staining was carried out using pre-osteoclasts differentiated from BMMs in the presence of M-CSF (10 ng/ml) and RANKL (50 ng/ml) for 2 days. Representative images were shown by TIRF microscopy. f, g IB analysis of total samples and GST pull-downs using GST proteins including GST, GST-GPR54 CT incubated separately with WCL of 293T cells transfected with DUSP18-flag, PPP1CA-Flag or PTPN6-Flag (f), and quantification of protein levels (g). Error bars are ± SEM. P-values were determined by two-tailed Student’s t-test (d) or one-way ANOVA analysis (g). *P <0.05, Representative results were observed from at least three independent experiments. Source data are provided as a Source Data file.

For “DSSDSSDSSDSSDSSDSS[dY]N[dW]NSF[azaGly]LR(Me)F-NH2 [(DSS)*6-Kp-10]”, the “serum FSH and LH, sham and OVX mice” value (FSH and LH) was “same level of FSH and LH”, the “rescue of Dusp18 deletion induced osteoclast activity” value (Dusp18 knockout mice; TRAP staining and osteoclast parameters) was “not by (DSS)*6-KP-10” and the “rescue of Dusp18 deletion induced bone mass change” value (Dusp18 knockout mice; micro-CT and bone parameters, n = 5) was “not by (DSS)*6-KP-10”. The “bone mass, 50 nmol/kg, sham and OVX mice” value (OVX mice; 50 nmol/kg twice per week, micro-CT, femur, n = 6 per group) was “bone mass increased”, the “osteoclast activation, 50 nmol/kg, sham and OVX mice” value (OVX mice; 50 nmol/kg twice per week, TRAP staining, Oc.S/BS, N.Oc/B.Pm, ES/BS, n = 6 per group) was “suppressed osteoclast activation both in sham-operated and OVX mice” and the “bone protective effect versus Kp-10” value (OVX mice; OVX mice, 1 or 10 nmol/kg twice per week for two months, Von Kossa staining, trabecular bone parameters) was “rescued OVX induced bone loss more effectively than Kp-10; also recorded: showed better bone protective effect; also recorded: showed better effects than Kp-10 on bone protection”. The “bone loss / bone protection in vivo (summary statement)” value (OVX mice; in vivo, OVX-induced bone loss model) was “showed bone protection in the OVX-induced bone loss model by inhibiting osteoclast activity; also recorded: protects against bone loss”.

In the case of “D-Tyr–Asn-(D-Trp)-Asn-Ser-Phe-(azaGly)-Leu-Arg (Me)-Phe-NH2 [Modified Kp-10, Modified Kp-10 designed as previously described]”, the metabolic stability [1] is given as “high metabolic stability” and the GPR54 agonistic activity (GPR54) is given as “excellent GPR54 agonistic activity”.

B1: DUSP18: full-length WT human DUSP18 (protein, UniProt Q8NEJ0 1-188, looked up)
chain: MTAPSCAFPVQFRQPSVSGLSQITKSLYISNGVAANNKLMLSSNQITMVINVSVEVVNTLYEDIQYMQVPVADSPNSRLCDFFDPIADHIHSVEMKQGRTLLHCAAGVSRSAALCLAYLMKYHAMSLLDAHTWTKSCRPIIRPNSGFWEQLIHYEFQLFGKNTVHMVSSPVGMIPDIYEKEVRLMIPL
modifications: full-length His tag
For B1, the “competition with Src for binding to GPR54 CT” value (GPR54 CT [2]) was “competed with Src for binding to GPR54 CT”, the “dephosphorylation of Src (Y416)” value (Src (Y416)) was “potently reduced the phosphorylation of Src (Y416)” and the “interaction with GPR54 among DUSP18, PTPN6 and PPP1CA” value (GPR54 CT [3]) was “had the strongest interaction with GPR54”.
